Experimental data reported in US8637461B2, “Method of diagnosing and treating oxidative stress-impaired wound healing” (Kuwait University, priority 2011, dated 2014).

Tests used:
[1] = system: Jun N-terminal kinase (JNK); assay: JNK phosphorylation, FACE-JNK ELISA in fibroblasts; assay type: cell-based, rat; details: diabetic, TNF-α- or dexamethasone-exposed cells; EUK-134
Description: (§1) Primary dermal fibroblasts were obtained from dorsal skin of female Goto Kakizaki (GK, age 12-15 months) rats, a model for non-obese type 2 diabetes, and their Wistar control counterparts. After sterilization in povidine solution, rat skin was washed in sterile water and rinsed in 70% ethanol in PBS. Epidermis and dermis were separated following overnight incubation in 0.25% trypsine/EDTA at 4 C. Dermis was cut into small pieces and incubated in Dulbecco's modified Eagle medium (DMEM; Invitrogen) containing collagenase (250 U/ml; Sigma) for thirty min at 37 C in 5% CO2 with constant agitation. The sections were triturated vigorously to release fibroblasts, which were collected by centrifugation. […]
(§2) A hypercortisolemic state was mimicked by exposing control fibroblasts to dexamethasone (Dexa, Sigma) administered at 20 ng/ml every other day for a duration of 8 days. […] The concentration of IGF-1 (50 ng/ml, Peprotech) was determined by prior dose response experiment.
(§3) Activation of Akt and JNK was analyzed in fixed fibroblasts using FACE-Akt and FACE-JNK (both from Active Motife). […] Labeling with antibodies was conducted according to the manufacturer's protocol and the resulting phosphoantibody signal was calculated after correction for number of cells and total Akt or JNK levels in each sample. […]

Akt = Akt phosphorylation, FACE cell-based ELISA in fixed fibroblasts; set-up: species or system rat; details: diabetic, TNF-α- or dexamethasone-exposed cells, EUK-134
Description: as §1, §2, §3

dermal fibroblasts = assay: BrdU cell proliferation assay in fibroblasts; assay type: cell-based, rat; details: fibroblasts with diabetic, inflammatory or hypercortisolemia phenotypes; ROS suppressors
Description: (§4) Primary dermal fibroblasts were obtained from dorsal skin of female Goto Kakizaki (GK, age 12-15 months) rats, a model for non-obese type 2 diabetes, and their Wistar control counterparts. After sterilization in povidine solution, rat skin was washed in sterile water and rinsed in 70% ethanol in PBS. Epidermis and dermis were separated following overnight incubation in 0.25% trypsine/EDTA at 4 C. Dermis was cut into small pieces and incubated in Dulbecco's modified Eagle medium (DMEM; Invitrogen) containing collagenase (250 U/ml; Sigma) for thirty min at 37 C in 5% CO2 with constant agitation. The sections were triturated vigorously to release fibroblasts, which were collected by centrifugation. The cell pellet was washed two times with PBS, re-suspended in complete medium (DMEM supplemented with 10% fetal calf serum, penicillin (100 U/ml), streptomycin (100 μg/ml)), 2 mM L-glutamine and 10 mM HEPES) and then cultured under a standard condition.
(§5) A hypercortisolemic state was mimicked by exposing control fibroblasts to dexamethasone (Dexa, Sigma) administered at 20 ng/ml every other day for a duration of 8 days. Similarly, the state of low-grade inflammation in fibroblasts was recapitulated experimentally by exposing these cells to TNF-α (4 ng/ml every day for 4 days). […] The concentration of IGF-1 (50 ng/ml, Peprotech) was determined by prior dose response experiment.
The proliferation and collagen synthesis of cultured fibroblasts were determined using, respectively the 5-bromo-2-deoxyuridine (BrdU) incorporation into DNA and a radiolabelled proline uptake assay.
Cells were seeded into 96-microtiter plates at a concentration of 1.5×10^4 and allowed to adhere overnight in DMEM supplemented with 10% FCS. After arrest by incubation in DMEM supplemented with 0.5% FCS for 24 hrs, cells were exposed to IGF-I (50 ng/ml) in DMEM containing […] 5-bromo-2-deoxyuridine (BrdUrd). Incorporation of BrdUrd into DNA was estimated using 5-bromo-2-deoxyuridine labeling and detection kit (Roche Applied Science) according to the manufacturer's instructions.

[2] = system: reactive oxygen species (ROS); assay: ROS generation in cultured fibroblasts (DCF-DA); assay type: cell-based, rat
Description: as §4, §5
ROS generation in cultured fibroblasts was evaluated using dichloroflurescein-diacetate (DCF-DA, Molecular Probes), a probe that is oxidized to the fluorescent product DCF upon exposure to hydrogen peroxide, peroxynitrite, hydroxyl radical and nitric oxide. Its concentration serves as an indicator of the overall degree of intracellular oxidative stress.
Cells seeded in 96-well plates were incubated for thirty minutes at 37 C in serum free media containing 5 μM of DCF-DA. The plates were then washed twice with Krebs Ringer Buffer (KR) and the fluorescence readings were taken every 15 min for 1 hr at Ex=485 and Em=530. Subtracted background values were obtained from wells containing DCF-DA without cells. […]

excisional wounds = assay: Full-thickness excisional wound healing, 7 days; assay type: in vivo, rat
Description: All animal procedures were performed in accordance with the NIH Guidance for the Care and Use of Laboratory Animals. The current study used, respectively the GK and Dexamethasone-treated rats as models for diabetes and hypercortisolemia. Dexamethasone was administered subcutaneously at a dose of 2.5 μg/kg body weight in the morning (8:00 AM) and in the evening (8:00 PM) for a duration of four weeks before wounding and this form of therapy continued during the course of healing. […] Weight and age-matched female Wistar rats (Kuwait University breeding colony) served as the corresponding controls. All of the animals were maintained under standard conditions with 12 hours on/off light cycle, commercial diet, and water ad libitum. GK rats destined for wounding were initially matched with regard to body weight (e.g., 230 to 250 g), and plasma levels of glucose, free fatty acids and insulin. These indices are commonly used to reflect the severity of the diabetic state.
Animals used for IGF-1 sensitivity (n=6/group) and wound healing (n=8) studies were partitioned into five study groups including control, diabetic, hypercortisolemic, diabetic+EUK and hypercortisolemic+EUK. The EUK-134 was administered for duration of four weeks before wound induction and it continued during the course of healing.
Animals derived from various experimental groups were anesthetized by ip, injection of 90 mg ketamine+10 mg xylazine/kg body weight, and their back skin was shaved, depilated with Nair and cleaned with 70% alcohol. Six bilateral full-thickness excisional wounds (8 mm in diameter) at equidistant from midline were created on the dorso-rostral back skin. Wounds were separated by a minimum of 1 cm of uninjured skin. […] The wound area was analyzed using Adobe PhotoShop (version 7.0; Adobe Systems) and the percentage of wound closure was derived by the following formula: (1−[current wound size/initial wound size])×100.

COc1cccc(C=NCCN=Cc2cccc(OC)c2[O-])c1[O-].[Cl-].[Mn+3] [EUK-134] was tested, and the “basal JNK activity (phosphorylation)” value [1] was “returns its phosphorylation state to approximate levels found in normal fibroblasts”, the “Akt phosphorylation in response to IGF-1” value (Akt) was “partially restored” and the “impairment in key fibroblast functions (collagen synthesis, cell proliferation, migration, contraction)” value (dermal fibroblasts) was “ameliorates”. For the same molecule, the “reactive oxygen species (ROS) levels” value ([2]; diabetic, TNF-α- or dexamethasone-exposed cells, EUK-134) was “approximately restores normal ROS levels”, the “HSOS (oxidative stress)” value ([2]; fibroblasts with diabetic, inflammatory or hypercortisolemia phenotypes, ROS suppressors) was “lessen the HSOS” and the wound healing (excisional wounds; diabetic rats, treatment with EUK-134 and/or IGF-1) was “heal as rapidly as those on control rats”. The “healing rates of wounds” value (excisional wounds; diabetic/hypercortisolemic rat wounds, antioxidant administered) was “statistically indistinguishable from control rat wounds treated with IGF-1 alone”.
